Data published in PMC4335872, “Pharmacokinetic-Pharmacodynamic Analysis of Spiroindolone Analogs and KAE609 in a Murine Malaria Model” (Antimicrobial Agents and Chemotherapy, 2015).

Assays:
[1] = test system: P. falciparum NF54; assay: In vitro [3H]hypoxanthine incorporation assay, P. falciparum NF54; format: cell-based, Plasmodium falciparum; settings: 16 h + 8 h incubation; read-out: IC50 (mean ± SD) for P. falciparum NF54 (n = 3)
Experimental: Human erythrocytes served as the host cells. In vitro antimalarial activity was measured using the [^3H]hypoxanthine incorporation assay ([36]) with strain NF54 of P. falciparum (obtained from Hoffmann-LaRoche Ltd.). The compounds were dissolved in dimethyl sulfoxide (DMSO) at a concentration of 10 mM, diluted in hypoxanthine-free culture medium, and titrated in duplicate over a 64-fold range in 96-well plates. […] The parasites were harvested onto glass fiber filters, and radioactivity was measured using a BetaPlate liquid scintillation counter (Wallac, Zurich, Switzerland). All assays were repeated at least three times. The results were recorded and expressed as a percentage of the untreated controls. […] In addition, for the PK-PD analysis of KAE609, an IC99 value was determined by transforming the data from a scintillation counter (Anscombe transformation) to account for Poissonian measurement error. […] Each of the three replicates was performed on a distinct 96-well plate. This has been accounted for in the fitting procedure by means of a Bayesian hierarchical model. The software used for parameter inference was Stan ([37]).

[2] = test system: P. berghei GFP ANKA PbGFPCON; assay: In vitro (ex vivo) P. berghei maturation assay; format: cell-based, Plasmodium berghei; settings: 16 h + 8 h incubation; read-out: IC50 (mean ± SD) for P. berghei GFP ANKA PbGFPCON (n = 3)
Experimental: For the in vitro (ex vivo) P. berghei maturation assays ([38]), heparinized blood from infected mice (P. berghei GFP ANKA malaria strain PbGFPCON, a donation from A. P. Waters and C. J. Janse, Leiden University, Leiden, the Netherlands) ([39]) was washed with 9 ml of hypoxanthine-free culture medium and diluted with hypoxanthine-free culture medium and red blood cells (RBCs) from uninfected mice to a hematocrit of 5% and a parasitemia of 0.3%. Serial compound dilutions were prepared in DMSO and distributed as described above. The infected erythrocytes (0.3% final parasitemia and 2.5% final hematocrit) were added into the wells. After the plates were incubated for 16 h, 0.25 μCi of [^3H]hypoxanthine was added per well, and the plates were incubated for an additional 8 h. The parasites were harvested, and the in vitro (ex vivo) P. berghei IC50, IC90, and IC99 values were determined as described above.

[3] = In vivo PK after single p.o. and i.v. dosing in CD-1 mice; set-up: species or system female CD-1 mice; settings: CD-1 mice
Experimental: The Institutional Animal Care and Use Committee (IACUC) of the Novartis Institute for Tropical Diseases (NITD), registered with the Agri-Food and Veterinary authority (AVA), Government of Singapore, reviewed and approved all animal experimental protocols. […] The mice were allowed to acclimate before the initiation of the experiments. Feed and water were given ad libitum. […] The blood samples from the mice were collected at 0.02 (for i.v. only), 0.08, 0.25, 0.5, 1, 2, 4, 8, 16, and 24 h postdosing. The dose proportionality studies were conducted with KAE609. […] Additional samples were collected at 32 h and 48 h postdose for the 1- and 5-mg/kg dose groups and up to 72 h postdose for the 100-mg/kg dose group. Groups of three mice were used for each time point. Blood was centrifuged at 13,000 rpm for 7 min at 4°C, and plasma was harvested and stored at -20°C until analysis. […] After vortexing and centrifuging the mixture, the supernatant was removed and 5 μl of sample analyzed. Analyte quantitation was performed by high-performance liquid chromatography coupled with tandem mass spectrometry (LC-MS/MS). […] Instrument control and data acquisition were performed using the Applied Biosystems software Analyst 1.4.2. […] Multiple-reaction monitoring (MRM) was combined with optimized MS parameters to maximize detection specificity and sensitivity. The most intense MRM transitions [338.3/295.1 for (+)-1, 370.1/327.0 for (+)-2, 370.0/326.9 for (+)-3, 354.1/310.8 for (+)-4, 354.1/311.2 for (+)-5, 372.1/329.1 for (+)-6, 388.0/331.8 for (+)-7, 372.1/316.1 for (-)-6, and 388/332 for (-)-7] were used for quantitation. Most compounds were analyzed using electrospray ionization in the negative mode, except (+)-1, which was analyzed using positive mode. The recovery of the compounds from plasma was good and consistent across the concentration range studied. The lower limits of quantification for different compounds ranged from 1.3 to 70 ng/ml in plasma. A calibration curve was freshly prepared and analyzed with every set of study samples. Intraday variability was established with triplicate quality control samples at three concentration levels. The results were accepted if relative standard deviation was <15%. The mean values of the compound concentrations in plasma were obtained from three animals at each time point and plotted against time to generate concentration-time profiles. […] The oral bioavailability (F) was calculated as the ratio between the area under the concentration-time curve from 0 to infinity (AUC0-∞) following oral administration and the AUC0-∞ following intravenous administration corrected for dose (F = […].).

[4] = test system: P. berghei GFP ANKA malaria strain PbGFPCON; assay: Dose-response efficacy in the P. berghei malaria mouse model; format: in vivo, female NMRI mice
Excerpt: All in vivo studies conducted at the Swiss Tropical and Public Health Institute (TPH) adhered to local and national regulations of laboratory animal welfare in Switzerland (permission no. 1731). For in vivo efficacy, female (specific-pathogen-free) […] (NMRI) mice were obtained from Janvier, Le Genest-Saint-Isle, France. Only mice without visible signs of disease were used for the study. Standard laboratory conditions were adopted for husbandry. In vivo antimalarial activity was assessed using groups of five female NMRI mice (20 to 22 g) intravenously infected on day zero with 2 × 10^7 erythrocytes parasitized with P. berghei GFP ANKA malaria strain PbGFPCON (a donation from A. P. Waters and C. J. Janse, Leiden University) ([39]). Untreated control mice typically died between day six and day seven postinfection. Experimental compounds were formulated in 10% ethanol, 30% PEG 400, and 60% of 10% vitamin E TPGS and were administered orally in a volume of 10 ml/kg. Dose-response efficacy studies were conducted for each spiroindolone analog. Doses of 2.5, 5, 10, 30, and 100 mg/kg were administered to groups of 5 mice each as a single dose at 24 h postinfection. Parasitemia, expressed as parasitized red blood cells (pRBCs) of >100 RBCs, was determined 72 h postinfection using standard flow cytometry techniques ([39]).
Data analysis was done using nonlinear mixed-effect modeling (NONMEM version VI 2.0), which analyzed the PD data from multiple dose groups obtained simultaneously from different experiments. Within NONMEM, first-order conditional estimation (FOCE) was the method used ([40]). The log-transformed dose and level of parasitemia were used for analysis. For each compound, a dose-response model was built, and the ED90 (effective dose lowering 90% of parasitemia) values were determined using equation 1 ([41]), where P is the parasitemia measured at any given dose, Pmax is the maximum level of parasitemia, Pmin is the minimum level of parasitemia, EZ50 is the dose required to produce 50% of the maximal effect, s is the Hill slope describing the steepness of the curve, and x is the dose (in mg/kg). 1 P=Pmin +{[Pmax−Pmin]/[1+10^(logEZ50−log x)×s]}

[5] = Parallel artificial membrane permeability assay (PAMPA); format: in vitro ADME; settings: % fraction absorbed
Excerpt: (§1) page 5: Running title: PreclinicalPK -PD of antimalarials 73 to high through put form at using in- house standard assa y protocols that are described in the 74 literature. 75 (a)HT-Equilibrium solubilit y at pH 6.8( 1); (b)Parallel Artificial Membrane P ermeability Assa y 76 expressed in % fraction absorbed (FA) ( 2,3 ); (c)Apparent permeability from apical to […] 78 tested; (d)intrinsic clearance in mouse liver micro somes ex pressed as µ L/ min/mg protein, in 79 the presen ce of liver enzym es ( 6); (e)Mous e plasm a protein binding using rapid equilibrium […] 81 82 83 84 85 86 87 88 89 90 91 92 93 94 95 96 97 98 5

[6] = test system: Caco-2 cells; assay: Caco-2 permeability; format: in vitro ADME; settings: apical to basolateral
Excerpt: as §1

[7] = Intrinsic clearance in mouse liver microsomes; format: in vitro ADME; settings: per mg protein
Excerpt: as §1

[8] = Mouse plasma protein binding, rapid equilibrium dialysis; format: in vitro ADME
Excerpt: as §1

[9] = sigmoid dose-response model, single oral doses 24 h postinfection, parasitemia 72 h postinfection

SMILES: C[C@H]1Cc2c([nH]c3ccccc23)[C@@]2(N1)C(=O)Nc1ccc(Cl)cc12 [(+)-1]
- IC50 [1]: 13 ± 2.2 nM
- IC50 [2]: 242 ± 124 nM
- CL ([3]; i.v. 5 mg/kg): 49.7 mL/min/kg
- Vss ([3]; i.v. 5 mg/kg): 0.9 L/kg
- t1/2 (i.v.) ([3]; i.v. 5 mg/kg): 24 min
- F (oral bioavailability) ([3]; oral 25 mg/kg vs i.v. 5 mg/kg): 13%
- AUC0–24 ([3]; single oral dose 25 mg/kg): 1300 ng·h/mL
- Tmax ([3]; single oral dose 25 mg/kg): 15 min
- t1/2 (oral) ([3]; single oral dose 25 mg/kg): 42 min
- Cmax ([3]; single oral dose 25 mg/kg, plasma): 1200 ng/mL
- Hill slope ([4]; dose vs parasitemia model): −3.1
- Pmax (maximum parasitemia) [4, 9]: 33.11
- Pmin (minimum parasitemia) [4, 9]: 0.03
- ED90 (effective dose causing a 90% reduction in parasitemia) ([4]; single oral dose 24 h postinfection, parasitemia 72 h postinfection): 15.3 mg/kg
- PAMPA %FA [5]: 97%
- Caco-2 Papp (A-B) [6]: 7.19 10-6 cm/sec
- Hepatic CLint in mouse liver microsomes [7]: 770 µL/min/mg
- Mouse PPB [8]: 98.4%
